Laboratory results published in the NIST ThermoML archive (doi:10.1016/j.jct.2007.04.005).
± gives the expanded uncertainty stated by the source.

Experiment: xn = mol fraction of the nth substance listed
Conditions: 308.15 K, Liquid

CCCCCCCCC [nonane] + C1CCCCC1
Conditions | mass density [kg/m3]
100 kPa, x2 = 0 | 705.8 ± 0.7
100 kPa, x2 = 0.09303 | 708.8 ± 0.7
100 kPa, x2 = 0.2009 | 712.6 ± 0.7
100 kPa, x2 = 0.3051 | 716.8 ± 0.7
100 kPa, x2 = 0.417 | 721.7 ± 0.6
100 kPa, x2 = 0.512 | 726.3 ± 0.6
100 kPa, x2 = 0.5996 | 731.2 ± 0.6
100 kPa, x2 = 0.7052 | 737.9 ± 0.6
100 kPa, x2 = 0.7993 | 745 ± 0.6
100 kPa, x2 = 0.9039 | 754 ± 0.5
101 kPa, x2 = 0 | 706.11 ± 0.68
101 kPa, x2 = 0.1022 | 709.37 ± 0.66
101 kPa, x2 = 0.1548 | 711.18 ± 0.66
101 kPa, x2 = 0.2009 | 712.84 ± 0.65
101 kPa, x2 = 0.2591 | 715.05 ± 0.64
101 kPa, x2 = 0.3306 | 717.98 ± 0.63
101 kPa, x2 = 0.4003 | 721.05 ± 0.61
101 kPa, x2 = 0.4596 | 723.89 ± 0.6
101 kPa, x2 = 0.5321 | 727.62 ± 0.59
101 kPa, x2 = 0.612 | 732.19 ± 0.58
101 kPa, x2 = 0.6649 | 735.49 ± 0.57
101 kPa, x2 = 0.7224 | 739.39 ± 0.56
101 kPa, x2 = 0.8047 | 745.58 ± 0.54
101 kPa, x2 = 0.8686 | 751 ± 0.53
101 kPa, x2 = 0.9405 | 757.89 ± 0.52
2130 kPa, x2 = 0 | 707.5 ± 0.8
2130 kPa, x2 = 0.09303 | 710.5 ± 0.8
2130 kPa, x2 = 0.2009 | 714.3 ± 0.8
2130 kPa, x2 = 0.3051 | 718.5 ± 0.7
2130 kPa, x2 = 0.417 | 723.4 ± 0.7
2130 kPa, x2 = 0.512 | 728 ± 0.7
2130 kPa, x2 = 0.5996 | 733 ± 0.7
2130 kPa, x2 = 0.7052 | 739.7 ± 0.7
2130 kPa, x2 = 0.7993 | 746.8 ± 0.6
2130 kPa, x2 = 0.9039 | 755.7 ± 0.6
4150 kPa, x2 = 0 | 709.2 ± 0.9
4150 kPa, x2 = 0.09303 | 712.2 ± 0.9
4150 kPa, x2 = 0.2009 | 716 ± 0.8
4150 kPa, x2 = 0.3051 | 720.2 ± 0.8
4150 kPa, x2 = 0.417 | 725.1 ± 0.8
4150 kPa, x2 = 0.512 | 729.7 ± 0.8
4150 kPa, x2 = 0.5996 | 734.7 ± 0.8
4150 kPa, x2 = 0.7052 | 741.5 ± 0.7
4150 kPa, x2 = 0.7993 | 748.5 ± 0.7
4150 kPa, x2 = 0.9039 | 757.5 ± 0.7
6180 kPa, x2 = 0 | 710.9 ± 1
6180 kPa, x2 = 0.09303 | 713.9 ± 0.9
6180 kPa, x2 = 0.2009 | 717.7 ± 0.9
6180 kPa, x2 = 0.3051 | 721.9 ± 0.9
6180 kPa, x2 = 0.417 | 726.8 ± 0.9
6180 kPa, x2 = 0.512 | 731.4 ± 0.9
6180 kPa, x2 = 0.5996 | 736.4 ± 0.8
6180 kPa, x2 = 0.7052 | 743.2 ± 0.8
6180 kPa, x2 = 0.7993 | 750.3 ± 0.8
6180 kPa, x2 = 0.9039 | 759.3 ± 0.8
8210 kPa, x2 = 0 | 712.5 ± 1
8210 kPa, x2 = 0.09303 | 715.5 ± 1
8210 kPa, x2 = 0.2009 | 719.4 ± 1
8210 kPa, x2 = 0.3051 | 723.6 ± 1
8210 kPa, x2 = 0.417 | 728.5 ± 1
8210 kPa, x2 = 0.512 | 733.1 ± 0.9
